Assay results published in article PMC11117333, “Design and synthesis of new dihydropyrimidine/sulphonamide hybrids as promising anti-inflammatory agents via dual mPGES-1/5-LOX inhibition” (Frontiers in Chemistry, 2024).
Values joined by “and” are separate entries in the source; they are usually repeats but may differ in a detail not shown here. Equal values may be shown once. Marks after values point to notes of the source that are not given here.

Key:
[1] = tested on: carrageen-induced paw edema; assay: Carrageenan-induced paw edema bioassay; format: in vivo, rat; design: concentration or dose not given beside the values; conditions: for % Of edema inhibition 1 h: 1 h after carrageenan injection; for % Of edema inhibition 3 h: 3 h after carrageenan injection; for % Of edema inhibition 5 h: 5 h after carrageenan injection
Description: The compounds’ efficacy was measured as edema inhibition percentage (EI %) after 1, 3, and 5 h of carrageenan injection vs. the conventional medicine Celecoxib.
Compounds 3c, 3e, 3h, and 3j were chosen for in vivo anti-inflammatory testing using the carrageen-induced paw edema bioassay method described by [Winter et al, (1962)]. The compounds’ efficacy was measured as edema inhibition percentage (EI%) after 1, 3, and 5 h of carrageenan injection vs. the conventional medicine Celecoxib.

[2] = tested on: rat intestinal mucosa; assay: Gastric ulcerogenic activity (macroscopic inspection); format: in vivo; design: Score: Severity lesions: scale not given here; conditions: oral 10 mg/kg
Description: The two most common side effects of long-term NSAID use are gastrointestinal erosion and ulcers ([Hendawy et al., 2021]). As a result, we were curious about the ulcerogenic potential of the most efficacious drugs, 3e and 3j, when given orally. The ulcerogenic effects of 3e and 3j were assessed by macroscopic inspection of rat intestinal mucosa after oral administration of 10 mg/kg of 3e, 3j, indomethacin, and celecoxib ([Manivannan and Chaturvedi, 2011]).
The ulcerogenic effects of compounds 3e and 3j were evaluated by macroscopic examination of rat intestinal mucosa after oral administration of 10 mg/kg of these compounds and indomethacin and celecoxib ([Manivannan and Chaturvedi, 2011]). See Appendix A for details.

[3] = biological target: T1, soya bean 5-LOX (Glycine max, UniProt P08170); assay: 5-LOX enzyme assay (EIA kit, Cayman 760700); format: biochemical
T1 construct: purchased Cayman Chemical, Ann Arbor, Michigan, USA 760700
T1 sequence (P08170 1-839): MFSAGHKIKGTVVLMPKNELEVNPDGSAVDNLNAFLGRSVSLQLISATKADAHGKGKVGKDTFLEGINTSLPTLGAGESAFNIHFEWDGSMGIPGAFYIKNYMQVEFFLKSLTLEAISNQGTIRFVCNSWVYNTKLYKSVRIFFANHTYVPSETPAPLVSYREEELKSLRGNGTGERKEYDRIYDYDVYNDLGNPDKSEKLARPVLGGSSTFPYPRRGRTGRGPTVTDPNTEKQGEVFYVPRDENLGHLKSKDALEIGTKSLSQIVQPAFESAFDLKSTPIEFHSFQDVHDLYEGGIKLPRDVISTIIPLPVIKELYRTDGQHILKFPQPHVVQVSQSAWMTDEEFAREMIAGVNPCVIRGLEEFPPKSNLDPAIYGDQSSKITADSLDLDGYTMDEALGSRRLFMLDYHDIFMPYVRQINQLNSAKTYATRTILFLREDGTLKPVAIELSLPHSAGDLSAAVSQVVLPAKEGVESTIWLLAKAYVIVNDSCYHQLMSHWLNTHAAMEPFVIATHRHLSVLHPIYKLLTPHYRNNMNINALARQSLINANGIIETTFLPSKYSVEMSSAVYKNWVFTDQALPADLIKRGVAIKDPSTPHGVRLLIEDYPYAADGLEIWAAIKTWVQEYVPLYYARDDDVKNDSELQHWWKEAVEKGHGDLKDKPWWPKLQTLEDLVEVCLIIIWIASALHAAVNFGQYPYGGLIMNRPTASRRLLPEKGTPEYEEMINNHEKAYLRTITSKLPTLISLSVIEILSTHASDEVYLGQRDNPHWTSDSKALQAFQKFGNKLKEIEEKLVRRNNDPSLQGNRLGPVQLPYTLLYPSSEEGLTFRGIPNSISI
From the text: The capacity of compounds 3a–j to inhibit the enzyme 5-lipoxygenase (5-LOX) has been investigated ([Youssif et al., 2019]).
The study used an enzyme immune assay (EIA) kit (catalogue no. 760700, Cayman Chemical, Ann Arbor, Michigan, USA) to evaluate the inhibitory activity of target analogues against soya bean 5-LOX, ensuring compliance with manufacturer’s instructions and protocols, and calculating IC50 values ([Roschek et al., 2009]).

[4] = biological target: T2, mPGES-1 (Homo sapiens, UniProt O14684); assay: Cell-free mPGES-1 enzyme assay (microsomal fractions from IL-1β-stimulated A549 cells); format: biochemical; conditions: for remaining activity at 10 µM: 10 µM compound, read-out: mPGES-1 RA (%) 10 µM (residual activity percentage); for remaining activity at 10 µM / IC50: cell-free, A549 microsomes; for fold less potent than 3j (mPGES-1): from IC50 values
T2 construct: microsomal fractions from IL-1β-stimulated A549 cells served as the enzyme source; endogenous in cells; host or cells: A549 cells (IL-1β-stimulated), microsomal fraction
T2 sequence (O14684 1-152): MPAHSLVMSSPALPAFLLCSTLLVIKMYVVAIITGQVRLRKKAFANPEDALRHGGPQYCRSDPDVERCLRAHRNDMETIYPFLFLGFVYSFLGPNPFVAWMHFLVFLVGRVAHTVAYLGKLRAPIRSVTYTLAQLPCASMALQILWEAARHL
Description: A cell-free assay was conducted to evaluate the capacity of compounds […] to act as inhibitors of mPGES-1. In this assay, microsomal fractions from IL-1β-stimulated A549 cells served as the enzyme source ([Gürses et al., 2021]). During the initial screening phase, compounds 3a–j were examined for their effects on mPGES-1 at a concentration of 10 µM.
Microsomal measures of A549 cells expressing mPGES-1 were made in accordance with prior research findings ([Koeberle et al., 2008]). These cells were cultivated in Dulbecco’s Modified Eagle Medium and resuspended in a homogenization buffer. Subsequently, the microsomes were subjected to pre-incubation with either assessed compounds or a carrier solution containing 0.1 percent DMSO. The enzymatic process was halted by introducing FeCl3, citric acid, and 11-PGE2 as an internal standard. The quantities of Prostaglandin E2 (PGE2) were measured via RP-HPLC methodologies.

[5] = tested on: PGE2; assay: Rat serum PGE2 after carrageenan (ELISA); format: in vivo; conditions: 4 hours after subcutaneous carrageenan; for PGE2 serum concentration: mean ± SE
From the text: Inhibiting PGE2 is a crucial strategy in anti-inflammatory therapy, playing a pivotal role in managing inflammation and its associated conditions.
(§1) In this study, specializing ELISA kits were used to determine the concentration of inflammatory cytokines PGE2, IL-6, and TNF-α. The study’s findings were examined in accordance with the instructions provided by the manufacturer, and measurements were taken based on the optical density at 450 nm.

[6] = tested on: IL-6; assay: Rat serum IL-6 after carrageenan (ELISA); format: in vivo; conditions: for IL-6 serum concentration: mean ± SE
From the text: as §1

[7] = tested on: TNF-α; assay: Rat serum TNF-α after carrageenan (ELISA); format: in vivo; conditions: for TNFα serum concentration: mean ± SE
From the text: as §1

| SMILES | IC50 [3] [µM] | remaining activity at 10 µM [4] [%] | IC50 [4] [µM] | melting point [°C] | % Of edema inhibition 1 h [1] [%] | % Of edema inhibition 3 h [1] [%] | % Of edema inhibition 5 h [1] [%] | also measured |
| --- | --- | --- | --- | --- | --- | --- | --- | --- |
| Cc1ccc(-c2cc(C(F)(F)F)nn2-c2ccc(S(N)(=O)=O)cc2)cc1 [Celecoxib, reference compound] | – | – | – | – | 40 | 54 | 22 | Score: No. of gastric ulcers [2]: 2.5 ± 0.10; Score: Severity lesions [2]: 5.80 ± 0.20 |
| CC1=C(C(=O)Nc2ccc(S(N)(=O)=O)cc2)C(c2ccccc2)NC(=S)N1 (stereo not drawn) [Compound 3a, 6-methyl-4-phenyl-N-[4-sulfamoylphenyl]-2-thioxo-1,2,3,4-tetrahydropyrimidine-5-carboxamide] | 5.85 | 89.2 | 4.28 | 266 to 269 | – | – | – | – |
| CC1=C(C(=O)Nc2ccc(S(N)(=O)=O)cc2)C(c2cccc(O)c2)NC(=S)N1 (stereo not drawn) [Compound 3b, 4-[3-hydroxyphenyl]-6-methyl-N-[4-sulfamoylphenyl]-2-thioxo-1,2,3,4-tetrahydropyrimidine-5-carboxamide] | 4.82 | 69.2 | 3.89 | 288 to 291 | – | – | – | – |
| CC1=C(C(=O)Nc2ccc(S(N)(=O)=O)cc2)C(c2ccccc2)NC(=O)N1 (stereo not drawn) [Compound 3f, 6-methyl-2-oxo-4-phenyl-N-[4-sulfamoylphenyl]-1,2,3,4-tetrahydropyrimidine-5-carboxamide] | 5.34 | 91.4 | 4.78 | 258 to 260 | – | – | – | – |
| CC1=C(C(=O)Nc2ccc(S(N)(=O)=O)cc2)C(c2cccc(O)c2)NC(=O)N1 (stereo not drawn) [Compound 3g, 4-[3-hydroxyphenyl]-6-methyl-2-oxo-N-[4-sulfamoylphenyl]-1,2,3,4-tetrahydropyrimidine-5-carboxamide] | 4.45 | 64.7 | 3.45 | 270 to 272 | – | – | – | – |
| COc1cc(C2NC(=O)NC(C)=C2C(=O)Nc2ccc(S(N)(=O)=O)cc2)cc(OC)c1OC (stereo not drawn) [Compound 3i, 6-methyl-2-oxo-N-[4-sulfamoylphenyl]-4-[3,4,5-trimethoxyphenyl]-1,2,3,4-tetrahydropyrimidine-5-carboxamide] | 3.97 | 53.6 | 2.89 | 260 to 263 | – | – | – | – |
| COc1ccc2c(c1)c(CC(=O)O)c(C)n2C(=O)c1ccc(Cl)cc1 [Indomethacin, reference compound] | – | – | – | – | – | – | – | Score: No. of gastric ulcers [2]: 8.5 ± 0.40; Score: Severity lesions [2]: 12.50 ± 0.70 |
| Cc1cnc(NC(=O)C2=C(O)c3ccccc3S(=O)(=O)N2C)s1 [Meloxicam, reference compound] | – | – | – | – | – | – | – | PGE2 %inhibition [5]: 73%; PGE2 %inhibition ([5]; listed as meloxicam): 72.60%; PGE2 serum concentration [5]: 82.50 ± 2.58 ^b pg/mL; IL-6 %inhibition [6]: 70%; TNFα %inhibition [7]: 62%; TNFα serum concentration [7]: 88.50 ± 2.40^ab pg/mL |

Continued by falling IC50 [3], values first:

| IC50 [3] [µM] | remaining activity at 10 µM [4] [%] | IC50 [4] [µM] | melting point [°C] | SMILES | % Of edema inhibition 1 h [1] [%] | % Of edema inhibition 3 h [1] [%] | % Of edema inhibition 5 h [1] [%] | also measured |
| --- | --- | --- | --- | --- | --- | --- | --- | --- |
| 3.65 | 46.8 | 2.7 | 270 to 272 | COc1cc(C2NC(=S)NC(C)=C2C(=O)Nc2ccc(S(N)(=O)=O)cc2)cc(OC)c1OC (stereo not drawn) [Compound 3d, 6-Methyl-N-[4-sulfamoylphenyl]-2-thioxo-4-[3,4,5-trimethoxyphenyl]-1,2,3,4-tetrahydropyrimidine-5-carboxamide] | – | – | – | – |
| 2.87 | 33.6 | 1.53 | 296 | COc1ccc(C2NC(=S)NC(C)=C2C(=O)Nc2ccc(S(N)(=O)=O)cc2)cc1O (stereo not drawn) [Compound 3c, 4-[3-hydroxy-4-methoxyphenyl]-6-methyl-N-[4-sulfamoylphenyl]-2-thioxo-1,2,3,4-tetrahydropyrimidine-5-carboxamide] | 29 | 46 | 55 | fold less potent than 3j (mPGES-1) [4]: 1.5 fold |
| 2.64 | 31.2 | 1.32 | 275 to 279 | COc1ccc(C2NC(=O)NC(C)=C2C(=O)Nc2ccc(S(N)(=O)=O)cc2)cc1O (stereo not drawn) [Compound 3h, 4-[3-hydroxy-4-methoxyphenyl]-6-methyl-2-oxo-N-[4-sulfamoylphenyl]-1,2,3,4-tetrahydropyrimidine-5-carboxamide] | 30 | 49 | 58 | PGE2 %inhibition [5]: 69%; PGE2 serum concentration [5]: 95.00 ± 2.50^abc pg/mL; IL-6 %inhibition [6]: 63%; IL-6 serum concentration [6]: 140.70 ± 4.20^ab pg/mL; fold less potent than 3j (mPGES-1) [4]: 1.5 fold; TNFα %inhibition [7]: 56%; TNFα serum concentration [7]: 102.70 ± 2.90^ab pg/mL |
| 2.07 | 28.6 | 0.97 | 272 to 274 | COc1ccc(C2NC(=S)NC(C)=C2C(=O)Nc2ccc(S(N)(=O)=O)cc2)cc1OC (stereo not drawn) [Compound 3e, 4-[3,4-dimethoxyphenyl]-6-methyl-N-[4-sulfamoylphenyl]-2-thioxo-1,2,3,4-tetrahydropyrimidine-5-carboxamide] | 35 | 57 | 65 | PGE2 %inhibition [5]: 72.70% and 73%; PGE2 serum concentration [5]: 83.50 ± 2.30 ^b pg/mL; IL-6 %inhibition [6]: 75%; IL-6 serum concentration [6]: 94.10 ± 2.75 ^b pg/mL; Score: No. of gastric ulcers [2]: 0.60 ± 0.01; Score: Severity lesions [2]: 1.00 ± 0.01; Ulceration in the isolated rat stomach (in words) [2]: mild hyperemia but no widespread ulceration; TNFα %inhibition [7]: 67%; TNFα serum concentration [7]: 78.10 ± 2.20 ^b pg/mL |
